Data taken from article PMC7691559 (Journal of Pesticide Science, 2020).
Where a chain is given by its changes, count along the chain named.

Columns and labels:
Assay in all cases: spectrophotometric GST assay, nonlinear regression
Type in all cases: biochemical
Details in all cases: read-out: CDNB / Km; 5 mM GSH, CDNB varied
[1] = molecular target: T1, bmGSTu2 (Bombyx mori, UniProt A9XI30, P162A)
T1 sequence (A9XI30 1-233 P162A): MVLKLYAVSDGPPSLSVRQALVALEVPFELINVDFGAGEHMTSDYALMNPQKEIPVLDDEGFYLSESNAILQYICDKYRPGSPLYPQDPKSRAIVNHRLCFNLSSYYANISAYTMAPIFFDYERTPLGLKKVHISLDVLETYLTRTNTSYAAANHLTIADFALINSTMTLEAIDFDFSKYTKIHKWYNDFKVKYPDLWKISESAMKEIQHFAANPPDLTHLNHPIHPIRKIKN

[2] = molecular target: T2, bmGSTu2 (Bombyx mori, UniProt A9XI30, S166A)
T2 sequence (A9XI30 1-233 S166A): T1 sequence (A9XI30 1-233 P162A) with A162P, S166A

[3] = molecular target: T3, bmGSTu2 (Bombyx mori, UniProt A9XI30)
T3 sequence (A9XI30 1-233): T1 sequence (A9XI30 1-233 P162A) with A162P

[4] = molecular target: T4, bmGSTu2 (Bombyx mori, UniProt A9XI30, N102A)
T4 sequence (A9XI30 1-233 N102A): T1 sequence (A9XI30 1-233 P162A) with N102A, A162P

`O=[N+]([O-])c1ccc(Cl)c([N+](=O)[O-])c1` [CDNB, 1-chloro-2,4-dinitrobenzene] gave a Km [1] of 2100 µM, a Km [2] of 720 µM and a Km [3] of 280 µM. It also gave a Km [4] of 940 µM.
